Measurements: US5674911A, “Antiinfective polyoxypropylene/polyoxyethylene copolymers and methods of use” (Cytrx Corporation, priority 1995, dated 1997)

Tests used:
Mycobacterium avium = assay: growth index of Mycobacterium avium in Bactec 7H12 Middlebrook broth (14C fatty acid); settings: 0.04 μg/ml (FIG. 35)
[1] = system: human peripheral blood mononuclear cells (PBMC); assay: growth / cytotoxicity in uninfected mitogen stimulated human PBMC; settings: 144 h, read-out: % Growth inhibition, PBMC
[2] = growth / cytotoxicity in Vero cells; settings: african green monkey, vero cells
Vero cells = assay: growth / cytotoxicity in Vero cells; settings: Chlorocebus sabaeus, Vero, 96 h, read-out: % Growth inhibition, Vero
HIV-1 (strain LAV-1) = assay: anti-HIV-1 assay in PBMC (reverse transcriptase activity); type: cell-based; settings: Human immunodeficiency virus 1, PBMC, 144 h, read-out: Anti-HIV-1 in PBMC: EC50
in vitro = settings: human, pha-stimulated pbmc

SMILES | inhibiting growth of M. avium (Mycobacterium avium) | inhibition at 0.1 µM [1] [%] | inhibition at 1 µM [1] [%] | inhibition at 10 µM [1] [%] | inhibition at 50 µM [1] [%] | inhibition at 100 µM [1] [%] | CC50 at 96 h [2] [µM] | inhibition at 0.1 µM (Vero cells) [%] | inhibition at 1 µM (Vero cells) [%] | inhibition at 10 µM (Vero cells) [%] | inhibition at 50 µM (Vero cells) [%] | inhibition at 100 µM (Vero cells) [%] | EC50 (HIV-1 (strain LAV-1)) [µM] | CC50 at 144 h (in vitro) [µM]
CO[C@H]1/C=C/O[C@@]2(C)Oc3c(C)c(O)c4c(O)c(c(/C=N/N5CCN(C)CC5)c(O)c4c3C2=O)NC(=O)/C(C)=C\C=C\[C@H](C)[C@H](O)[C@@H](C)[C@@H](O)[C@@H](C)[C@H](OC(C)=O)[C@@H]1C [Rifampin, rifampin] | effective in inhibiting growth |  |  |  |  |  |  |  |  |  |  |  |  | 
Cc1cn([C@H]2C[C@H](N=[N+]=[N-])[C@@H](CO)O2)c(=O)[nH]c1=O [AZT, azidothymidine] |  | -8.9 | -2.2 | 5.5 | 16.8 | 28.4 | 50.6 | -1.8 | 10.2 | 20.7 | 47.4 | 66.3 | 0.0056 | > 100
